{"source": "ChEMBL document CHEMBL6153028", "about": "“Understanding the synergistic sensitization of natural products and antibiotics: An effective strategy to combat MRSA” (2025)", "format_in_all_cases": "functional", "key": {"Staphylococcus aureus [1]": {"system": "Staphylococcus aureus", "experiment": "Antibacterial activity against methicillin-resistant Staphylococcus aureus ATCC 33592 assessed as reduction in bacterial growth measured for 24 hrs by CLSI protocol based two-fold serial dilution method"}, "Staphylococcus aureus [2]": {"system": "Staphylococcus aureus", "experiment": "Synergistic antimicrobial activity against methicillin resistant Staphylococcus aureus assessed as fractional inhibitory concentration index incubated for 24 hrs in presence of Oxacillin by checkerboard assay"}, "Staphylococcus aureus [3]": {"system": "Staphylococcus aureus", "experiment": "Synergistic antibacterial activity against methicillin-resistant Staphylococcus aureus assessed as fractional inhibitory concentration index incubated for 24 hrs in presence of cefazolin by checkerboard assay"}, "Staphylococcus aureus [4]": {"system": "Staphylococcus aureus", "experiment": "Synergistic antibacterial activity against methicillin-resistant Staphylococcus aureus assessed as fractional inhibitory concentration index incubated for 24 hrs in presence of Nafcillin by checkerboard assay"}, "Staphylococcus aureus [5]": {"system": "Staphylococcus aureus", "experiment": "Synergistic antibacterial activity against methicillin-resistant Staphylococcus aureus assessed as fractional inhibitory concentration index in presence of cefoxitin"}, "Staphylococcus aureus [6]": {"system": "Staphylococcus aureus", "experiment": "Synergistic antimicrobial activity against methicillin-resistant Staphylococcus aureus assessed as fractional inhibitory concentration index in presence of amoxicillin"}}}
{"molecule": "Oc1cc(O)c2c(c1)O[C@H](c1ccc(O)c(O)c1)[C@@H](O)C2", "note": "[CIANIDANOL]", "values": [{"measurement": "MIC", "setting": "Staphylococcus aureus [1]", "result": "> 1020", "unit": "µg/mL"}]}
{"molecule": "Cc1cc(O)c2c(=O)c3c(O)cc(O)c4c5c(O)cc(O)c6c(=O)c7c(O)cc(C)c8c1c2c(c34)c(c78)c65", "note": "[HYPERICIN]", "values": [{"measurement": "fractional inhibitory concentration index (FICI)", "setting": "Staphylococcus aureus [2]", "result": 0.1}, {"measurement": "fractional inhibitory concentration index (FICI)", "setting": "Staphylococcus aureus [3]", "result": 0.19}, {"measurement": "fractional inhibitory concentration index (FICI)", "setting": "Staphylococcus aureus [4]", "result": 0.19}]}
{"molecule": "CC1(C)CCC2=C(O1)c1ccccc1C(=O)C2=O", "note": "[LAPACHONE]", "values": [{"measurement": "fractional inhibitory concentration index (FICI)", "setting": "Staphylococcus aureus [5]", "result": 0.25}, {"measurement": "fractional inhibitory concentration index (FICI)", "setting": "Staphylococcus aureus [6]", "result": 0.07}]}
